Results from patent US20230220331A1, “TEMPORARY TREATMENT MEDIUM, TREATMENT KIT, EMBRYOGENESIS ARREST INHIBITOR, EMBRYOGENESIS ARREST INHIBITORY METHOD, DEVELOPMENTAL ENGINEERING PRODUCT PREPARATION METHOD, TRANSPLANTATION METHOD, THERAPEUTIC METHOD, AND DEVELOPMENTAL ENGINEERING PRODUCT” (priority 2020, published 2023).

How the values were obtained:
[1] = system: two-cell frozen embryo of a heterologous inbred SPR2 mouse; assay: ES cell establishment from SPR2 frozen embryos (Treatment Example 3); type: cell-based, Mus spretus; details: 5 SPR2 frozen embryos thawed and cultured to blastocyst in Y-27632 medium
Experimental: (§1) 5. Then, if necessary, the culture was continued in the Y-27632-free mWM medium to establish ES cells.
After thawing a two-cell frozen embryo of a heterologous inbred SPR2 mouse, it was cultured to a blastocyst in the temporary treatment medium containing Y-27632, and an attempt was made to establish ES cells. As a result, ES cells could be efficiently established (5 frozen embryos, 2 strains established). On the other hand, when Y-27632 was not added, no individual production and ES cells were established.

[2] = system: Early embryos of the heterologous inbred SPR2 mouse; assay: ES cell establishment from electroporated early embryos (Treatment Example 4); type: cell-based, Mus spretus; details: SPR2 early embryos cultured in Y-27632 medium, then electroporated
Experimental: 1. Up to 3 hours before TAKE, Y-27632-added mWM medium (Y-27632 final concentration 10 μM, an example of the “temporary treatment medium” of this example), Y-27632-free mWM medium (an example of “normal medium” of this example) were dropped into 35 mm Petri dishes by 5 drops, respectively, to prepare drops covered with paraffin oil.
2. Two-cell stage embryos were collected from the drops or thawed, placed in Y-27632-added mWM medium, and cultured for about 30 minutes to 1 hour (temporary treatment).
3. After that, TAKE was performed.
4. After TAKE, the embryos were placed in Y-27632-added mWM medium and cultured for about 30 minutes to 1 hour (temporary treatment). Then, the embryos were placed in Y-27632-free mWM medium and cultured at 37° C. under 5% CO2 and 5% O2 conditions until transplantation.
as §1
When Mus caroli ES cells were knocked out of the Tyr gene by genome editing and a part of them was analyzed, it was shown that NHEJ occurred and heterologous mouse ES cells were established.

[3] = system: pronuclear stage embryos of F344 rat; assay: Flox rat knock-in by 2STEP electroporation with high concentration ssODN (Treatment Example 6); type: cell-based; details: ssODN 800 ng/μL, 14 transfer pulses
Experimental: 1. At least 3 hours before TAKE, 5 drops of Y-27632-added KSOM AA medium (Y-27632 final concentration 10 μM, an example of the “temporary treatment medium” of this example) were placed on a 35 mm Petri dish and drops covered with paraffin oil.
2. Pronuclear stage embryos were collected, placed in Y-27632-added KSOM AA medium, and cultured for about 30 minutes to 1 hour (temporary treatment).
3. After that, the first TAKE was performed.
4. After TAKE, the embryos were placed in Y-27632-added KSOM AA medium and cultured under 37° C., 5% CO2, and 5% O2 conditions for 30 minutes and more and up to 12 hours (temporary treatment).
5. Then, they were placed in Y-27632-free KSOM AA medium (an example of the “normal medium” of this example), and cultured under 37° C., 5% CO2, and 5% O2 conditions until the second TAKE.
6. The next day, the embryos that had become two cells were separated, and about 20 to 22 hours after egg collection, they were placed in Y-27632-added KSOM AA medium again and cultured for about 30 minutes to 1 hour (temporary treatment).
7. After that, the second TAKE was performed.
8. After the second TAKE, the embryos were placed in Y-27632-added KSOM AA medium and cultured for about 30 minutes to 1 hour (temporary treatment).
9. Then, they were transferred to mR1ECM medium (an example of “normal medium” of this example). […]

[4] = system: frozen and thawed pronuclear stage and 2-cell stage embryos of rat Wistar-Imamichi; assay: Genome-edited individuals by frozen 1-2 cell TAKE of Wistar-Imamichi (Treatment Example 17); type: cell-based
Description: Next, knock-outs by TAKE were also produced in the pronuclear stage (1 cell) and the 2-cell stage (2 cells) […] of the frozen and thawed inbred rat Wistar-Imamichi. The conditions at this time were that the gRNA concentration was a specified amount (1 time), the pulse was 7 times, and the reduction rate was 40%.

[5] = system: NOD-scid Bbox1, IL2RG double knock-out mice; assay: Passage efficiency of mice prepared by using Y-27632 (Treatment Example 20); type: in vivo, mouse
Description: The double knock-out mice of IL2RG gene and the Bbox1 gene by using the NOD-scid mice in the above-mentioned treatment example 14 were mated with each other, and it was examined whether or not the newborn mouse was affected by Y-27632.

[6] = NOG-Bbox1, generation F1, 3 pregnancies
[7] = NOG-Bbox1, generation F2, 8 pregnancies

Q: For `C[C@@H](N)[C@H]1CC[C@H](C(=O)Nc2ccncc2)CC1` [Y-27632, trans-4-[(1R)-1-Aminoethyl]-N-4-pyrid inylcyclohexanecarboxamide], which “ES cell strains established” value [1] is on record?
A: Its value is 2 strains.

Q: What about the ES cells established [2] of the same molecule?
A: Its ES cells established is “at a high rate”.

Q: And the “samples developed to blastocysts (PCR AMPLIFICATION)” value ([3]; F344, 2STEP, of 86 samples)?
A: The value was 67.

Q: And the “Flox (proportion)” value ([3]; F344 blastocysts, 2STEP)?
A: Its value is 1/67.

Q: And the “NUMBER OF KO INDIVIDUALS (Large Deletion)” value ([4]; 37 TAKE embryos, 1 recipient)?
A: Its value is 2.

Q: What about the “NUMBER OF NEWBORNS” value ([4]; 37 TAKE embryos, 1 recipient, 1x gRNA, 7 pulses, 40% reduction rate) of the same molecule?
A: Its value is 8.

Q: And the “KO rate (Large deletion) (%)” value ([4]; KO individuals / newborns analyzed)?
A: Its value is “(25%)”.

Q: And the ave. litter size ([5]; NOG-Bbox1, generation F1)?
A: The ave. litter size was “(7.7/preg.)”.

Q: What about the Total pups [5, 6] of the same molecule?
A: The Total pups was 23.

Q: And the female pups [5, 6]?
A: Its female pups is 13.

Q: And the male pups [5, 6]?
A: The male pups was 10.

Q: And the ave. litter size ([5]; NOG-Bbox1, generation F2)?
A: Its ave. litter size is “(6.8/preg.)”.

Q: And the Total pups [5, 7]?
A: The Total pups was 54.

Q: What about the female pups [5, 7] of the same molecule?
A: Its female pups is 25.

Q: What about the male pups [5, 7] of the same molecule?
A: Its male pups is 29.

Q: And the “effect on mouse passage and phenotype” value ([5]; offspring of mice produced with Y-27632 treated embryos)?
A: Its value is “did not affect mouse passage and phenotype”.
